According to patent US20230107642A1 (Erasca, Inc., priority 2020, published 2023):

Each compound was assayed against T1, Cys12 of the KRAS 4B G12C protein (Homo sapiens, UniProt P01116, G12C) (assay: In vitro covalent adduct formation (CAF) assay, LC-MS intact mass). Details: 10 uM compound, 60 min.
T1 construct: This protein contained 188 amino acids in total, including an N-terminal 6-Histidine tag; made in house; host or cells: E. coli BL21
Type: binding
Outline: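 GDP-loaded (>95%) His-TEV-tagged KRAS 4B G12C (residues 1–169), 5 μM in TBS pH 7.4, incubated with 10 μM compound (4% DMSO) at 22° C for one hour. Intact-protein LC-MS gave free:adduct ratios, reported as percent protein modified; duplicate runs.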
For `C=CC(=O)N1[C@H](C)CN(c2nc(=O)n3c4c(c(-c5ccc(F)cc5F)c(C(F)(F)F)cc24)SC[C@@H]3CN(C)C)C[C@@H]1C` (atropisomer, axis not shown) [Example 1325, (3S,10S)-7-((3S,5R)-4-acryloyl-3,5-dimethylpiperazin-1-yl)-10-(2,4-difluorophenyl)-3-((dimethylamino)methyl)-9-(trifluoromethyl)-2,3-dihydro-5H-[1,4]thiazino[2,3,4-ij]quinazolin-5-one], the “% CAF 10 uM @ 60 min” value was 81.4%. `C=CC(=O)N1CCN(c2nc(=O)n3c4c(c(-c5cc(Cl)c(F)cc5F)c(C(F)(F)F)cc24)SC[C@@H]3CN2CCN(C3CC3)CC2)CC1` (atropisomer, axis not shown) [Example 1355, (3S,10R)-7-(4-acryloylpiperazin-1-yl)-10-(5-chloro-2,4-difluorophenyl)-3-((4-cyclopropylpiperazin-1-yl)methyl)-9-(trifluoromethyl)-2,3-dihydro-5H-[1,4]thiazino[2,3,4-ij]quinazolin-5-one] was tested, and the “% CAF 10 uM @ 60 min” value was 99.2%. In the case of `C=CC(=O)N1CCN(c2nc(=O)n3c4c(c(-c5ccc(F)cc5F)c(C(F)(F)F)cc24)SC[C@@H]3CN2CCN(C3CC3)CC2)CC1` (atropisomer, axis not shown) [Example 1391, (3S,10S)-7-(4-acryloylpiperazin-1-yl)-3-((4-cyclopropylpiperazin-1-yl)methyl)-10-(2,4-difluorophenyl)-9-(trifluoromethyl)-2,3-dihydro-5H-[1,4]thiazino[2,3,4-ij]quinazolin-5-one], the “% CAF 10 uM @ 60 min” value is reported as 95.9%. With `C=CC(=O)N1C[C@H](C)N(c2nc(=O)n3c4c(c(-c5cc(Br)c(F)cc5F)c(C(F)(F)F)cc24)SCC2(COC2)C3)C[C@H]1C` [Example 1436, 8′-((2S,5R)-4-acryloyl-2,5-dimethylpiperazin-1-yl)-11′-(5-bromo-2,4-difluorophenyl)-10′-(trifluoromethyl)-2′H,4′H,6′H-spiro[oxetane-3,3′-[1,4]thiazepino[2,3,4-ij]quinazolin]-6′-one] the “% CAF 10 uM @ 60 min” value was 81%. For `C=CC(=O)N1[C@H](C)CN(c2nc(=O)n3c4c(c(-c5ccc(F)cc5F)c(C(F)(F)F)cc24)SC[C@@H]3C)C[C@@H]1C` [Example 1427, (3S)-7-((3S,5R)-4-acryloyl-3,5-dimethylpiperazin-1-yl)-10-(2,4-difluorophenyl)-3-methyl-9-(trifluoromethyl)-2,3-dihydro-5H-[1,4]thiazino[2,3,4-ij]quinazolin-5-one], the “% CAF 10 uM @ 60 min” value was 95%. For `C=CC(=O)N1CCN(c2nc(=O)n3c4c(c(-c5c(F)cccc5F)c(C(F)(F)F)cc24)SC[C@@H]3COC)CC1` [Example 1377, (S)-7-(4-acryloylpiperazin-1-yl)-10-(2,6-difluorophenyl)-3-(methoxymethyl)-9-(trifluoromethyl)-2,3-dihydro-5H-[1,4]thiazino[2,3,4-ij]quinazolin-5-one], the “% CAF 10 uM @ 60 min” value was 95.5%. In the case of `C=CC(=O)N1CCN(c2nc(=O)n3c4c(c(-c5cc(Cl)c(F)cc5F)c(C(F)(F)F)cc24)SC[C@@H]3CN2CCN(CC)CC2)CC1` (atropisomer, axis not shown) [Example 1337, (3S,10S)-7-(4-acryloylpiperazin-1-yl)-10-(5-chloro-2,4-difluorophenyl)-3-((4-ethylpiperazin-1-yl)methyl)-9-(trifluoromethyl)-2,3-dihydro-5H-[1,4]thiazino[2,3,4-ij]quinazolin-5-one], the “% CAF 10 uM @ 60 min” value is reported as 96.7%. `C=CC(=O)N1[C@H](C)CN(c2nc(=O)n3c4c(c(-c5c(F)ccc6cnn(C)c56)c(C(F)(F)F)cc24)SC[C@@H]3COC)C[C@@H]1C` (atropisomer, axis not shown) [Example 1406, (3S,10R)-7-((3S,5R)-4-acryloyl-3,5-dimethylpiperazin-1-yl)-10-(6-fluoro-1-methyl-1H-indazol-7-yl)-3-(methoxymethyl)-9-(trifluoromethyl)-2,3-dihydro-5H-[1,4]thiazino[2,3,4-ij]quinazolin-5-one] was tested, and the “% CAF 10 uM @ 60 min” value was 75.9%. `C=CC(=O)N1CCN(c2nc(=O)n3c4c(c(-c5ccc(F)c6cnn(C)c56)c(C(F)(F)F)cc24)SC[C@@H]3COC)CC1` (atropisomer, axis not shown) [Example 1392a, (3S,10S)-7-(4-acryloylpiperazin-1-yl)-10-(4-fluoro-1-methyl-1H-indazol-7-yl)-3-(methoxymethyl)-9-(trifluoromethyl)-2,3-dihydro-5H-[1,4]thiazino[2,3,4-ij]quinazolin-5-one] was tested, and the “% CAF 10 uM @ 60 min” value was 97.2%. In the case of `C=CC(=O)N1[C@H](C)CN(c2nc(=O)n3c4c(c(-c5cc(Cl)c(F)cc5F)c(C(F)(F)F)cc24)SCC2(COC2)C3)C[C@@H]1C` (atropisomer, axis not shown) [Example 1361a, (R)-8′-((3S,5R)-4-acryloyl-3,5-dimethylpiperazin-1-yl)-11′-(5-chloro-2,4-difluorophenyl)-10′-(trifluoromethyl)-2′H,4′H,6′H-spiro[oxetane-3,3′-[1,4]thiazepino[2,3,4-ij]quinazolin]-6′-one], the “% CAF 10 uM @ 60 min” value is reported as 93.3%. For `C=CC(=O)N1[C@H](C)CN(c2nc(=O)n3c4c(c(-c5cc(Cl)c(F)cc5F)c(C(F)(F)F)cc24)SC[C@@H]3CN2CCN(CC)CC2)C[C@@H]1C` (atropisomer, axis not shown) [Example 1339], the “% CAF 10 uM @ 60 min” value was 68.7%. With `C=CC(=O)N1[C@H](C)CN(c2nc(=O)n3c4c(c(-c5ccc(F)cc5)c(C(F)(F)F)cc24)SC[C@@H]3C)C[C@@H]1C` [Example 1419, (S)-7-((3S,5R)-4-acryloyl-3,5-dimethylpiperazin-1-yl)-10-(4-fluorophenyl)-3-methyl-9-(trifluoromethyl)-2H-[1,4]thiazino[2,3,4-ij]quinazolin-5(3H)-one] the “% CAF 10 uM @ 60 min” value was 95.7%. For `C=CC(=O)N1[C@H](C)CN(c2nc(=O)n3c4c(c(-c5cc(Cl)c(F)cc5F)c(C(F)(F)F)cc24)SC[C@@H]3CN2CCN(C3CC3)CC2)C[C@@H]1C` (atropisomer, axis not shown) [Example 1348, (3S,10R)-7-((3S,5R)-4-acryloyl-3,5-dimethylpiperazin-1-yl)-10-(5-chloro-2,4-difluorophenyl)-3-((4-cyclopropylpiperazin-1-yl)methyl)-9-(trifluoromethyl)-2,3-dihydro-5H-[1,4]thiazino[2,3,4-ij]quinazolin-5-one], the “% CAF 10 uM @ 60 min” value was 94.4%.

Same assay, conditions: 10 uM compound, 60 min incubation
With `C=CC(=O)N1[C@H](C)CN(c2nc(=O)n3c4c(c(-c5cc(Cl)c(F)cc5F)c(C(F)(F)F)cc24)SC[C@H](N2CCCC2)C3)C[C@@H]1C` [Example 1129, (3R)-8-((3S,5R)-4-acryloyl-3,5-dimethylpiperazin-1-yl)-11-(5-chloro-2,4-difluorophenyl)-3-(pyrrolidin-1-yl)-10-(trifluoromethyl)-3,4-dihydro-2H,6H-[1,4]thiazepino [2,3,4-ij]quinazolin-6-one] the “% CAF 10 uM @ 60 min” value was 69%.

Same assay, conditions: 10 μM compound, after 1 hour
With `C=CC(=O)N1C2COCC1CN(c1nc(=O)n3c4c(c(-c5cc(Cl)c(F)cc5F)c(C(F)(F)F)cc14)SC[C@@H](OC)C3)C2` [Example 1210, (3S)-8-(9-acryloyl-3-oxa-7,9-diazabicyclo[3.3.1]nonan-7-yl)-11-(5-chloro-2,4-difluorophenyl)-3-methoxy-10-(trifluoromethyl)-3,4-dihydro-2H,6H-[1,4]thiazepino[2,3,4-ij]quinazolin-6-one] the “CAF (% after 1 hour)” value was 94%. With `C=CC(=O)N1[C@H](C)CN(c2nc(=O)n3c4c(c(-c5ncc(F)cc5F)c(C(F)(F)F)cc24)SC[C@@H](OC)C3)C[C@@H]1C` [Example 1225, (3S)-8-((3S,5R)-4-Acryloyl-3,5-dimethylpiperazin-1-yl)-11-(3,5-difluoropyridin-2-yl)-3-methoxy-10-(trifluoromethyl)-3,4-dihydro-2H,6H-[1,4]thiazepino[2,3,4-ij]quinazolin-6-one] the “CAF (% after 1 hour)” value was 95%. In the case of `C=CC(=O)N1[C@H](C)CN(c2nc(=O)n3c4c(c(-c5cc(Br)c(F)cc5F)c(C(F)(F)F)cc24)SC[C@@H](OC)C3)C[C@@H]1C` [Example 1239, (3S)-8-((3S,5R)-4-acryloyl-3,5-dimethylpiperazin-1-yl)-11-(5-bromo-2,4-difluorophenyl)-3-methoxy-10-(trifluoromethyl)-3,4-dihydro-2H,6H-[1,4]thiazepino[2,3,4-ij]quinazolin-6-one], the “CAF (% after 1 hour)” value is reported as 95%. `C=CC(=O)N1[C@H](C)CN(c2nc(=O)n3c4c(c(-c5cc(C(F)(F)F)ns5)c(C(F)(F)F)cc24)SC[C@@H](OC)C3)C[C@@H]1C` [Example 1215, (S)-8-((3S,5R)-4-acryloyl-3,5-dimethylpiperazin-1-yl)-3-methoxy-10-(trifluoromethyl)-11-(3-(trifluoromethyl)isothiazol-5-yl)-3,4-dihydro-2H,6H-[1,4]thiazepino[2,3,4-ij]quinazolin-6-one] was tested, and the “CAF (% after 1 hour)” value was 95%. For `C=CC(=O)N1C[C@H](C)N(c2nc(=O)n3c4c(c(-c5ccc(F)c(Cl)c5)c(C(F)(F)F)cc24)SC[C@@H](OC)C3)C[C@H]1C` [Example 1201, (S)-8-((2S,5R)-4-acryloyl-2,5-dimethylpiperazin-1-yl)-11-(3-chloro-4-fluorophenyl)-3-methoxy-10-(trifluoromethyl)-3,4-dihydro-2H,6H-[1,4]thiazepino[2,3,4-ij]quinazolin-6-one], the “CAF (% after 1 hour)” value was 96%. `C=C(F)C(=O)N1[C@H](C)CN(c2nc(=O)n3c4c(c(-c5cc(Cl)c(F)cc5F)c(C(F)(F)F)cc24)SC[C@@H](OC)C3)C[C@@H]1C` [Example 1218, (3S)-11-(5-Chloro-2,4-difluorophenyl)-8-((3S,5R)-4-(2-fluoroacryloyl)-3,5-dimethylpiperazin-1-yl)-3-methoxy-10-(trifluoromethyl)-3,4-dihydro-2H,6H-[1,4]thiazepino[2,3,4-ij]quinazolin-6-one] was tested, and the “CAF (% after 1 hour)” value was 66%.
